Source: patent publication US20040115236A1, “Devices and methods for management of inflammation” (priority 2000, published 2004)

What was measured:
[1] = cited from earlier work
[2] = solubility in sterile distilled water; type: physicochemical; conditions: thermodynamic from solid, read-out: maximum solubility
From the text: Sodium cromoglycate may be delivered from an implanted pump without the use of a catheter. For example, a DUROS® osmotic pump could be used. […] The formulation of sodium cromoglycate may then be loaded into a DUROS® pump under aseptic conditions. The pump is implanted in a subject, for instance subcutaneously in the upper arm, under local anesthetic and the drug would be released therefrom into the body of the subject. [formula]

[3] = tested on: exercise-induced bronchoconstriction; conditions: inhaled administration, plasma concentrations of 4-6 ng/ml; cited from earlier work

solubility [2]: ~120 mg/mL
SMILES: O=C(O)c1cc(=O)c2c(OCC(O)COc3cccc4oc(C(=O)O)cc(=O)c34)cccc2o1 [sodium cromoglycate, Sodium cromoglycate]
bioavailability, inhaled ([1]; inhaled): 7.5% | oral bioavailability ([1]; oral): less than 1% | inhibition of exercise-induced bronchoconstriction [3]: 66%
